Test results published in patent publication US10905665B2, “Chemical modulators of signaling pathways and therapeutic use” (Duke University, priority 2015, dated 2021).
Read-outs that look alike come from different tables or passages of the source.

How the values were obtained:
Format in all cases: cell-based
[1] = system: Wnt/β-catenin transcription; test: Wnt-3A-stimulated TOPFlash reporter assay in HEK293 cells; conditions: for IC50: Wnt-3A conditioned medium, 8 hour treatment, read-out: Inhibition Wnt/β-catenin transcription TopFlash IC50
Experimental: Stably transfected cells were seeded in 100 μl of cell growth medium/well in 96-well plates at 100% confluency. Fifty microliters of Wnt-3A conditioned medium containing the chemical compounds to be tested or DMSO was added to each well. After an 8 hour treatment, the cells were washed once with PBS and lysed with 55 μl of Passive Lysis Buffer supplied in the Dual-Luciferase Reporter Assay kit (Promega, Madison, Wis.). Twenty-five microliters of cell lysate was used for measuring luciferase activity in a 96-well plate reader (FluoStar Optima, BMG Labtech, Chicago, Ill.). Data were fit using GraphPad Prism (mean±SEM, n>=2).

Frizzled1-GFP = biological target: T1, Frizzled1-GFP (Homo sapiens, UniProt Q9UP38); test: Frizzled internalization assay (Fzd1-GFP); parameters: key: Punctate similar to control=0; trace amount of punctate greater than control=1; moderate=3; strong=5; conditions: 6 hours, 0-5 point scale
T1 construct: expressed in transfected cells
Experimental: The Fzd1-GFP assay was performed following a procedure similar to previously published work (Chen, M. Y.; Wang, J. B.; Lu, J. Y.; Bond, M. C.; Ren, X. R.; Lyerly, H. K.; Barak, L. S.; Chen, W. Biochemistry 2009, 48, 10267). Cells stably expressing Frizzled1-GFP plated in confocal dishes were treated, after 24 hours, with 12.5 μM of test compound or DMSO for 6 hours at 37° C. followed by fixation with 4% paraformaldehyde. The cells were then examined by microscopy using a LSM 510-Meta confocal microscope (Carl Zeiss, Thornwood, N.Y., USA) equipped with 40× and 100× apo chromat objectives. YFP was excited using a 488-nm argon laser line. Images were processed using the LSM software Image Browser (CarlZeiss, Thornwood, N.Y., USA). Plates were read twice in blinded fashion using a 0-5 point scale. ^aPunctate similar to control=0, trace amount of punctate greater than control=1, moderate=3, strong=5.

β-catenin = test: Western blot of cytosolic β-catenin in HCT-116 cells; conditions: Homo sapiens, HCT-116, 18 h, 2.0 μM compound, read-out: Remaining cytosolic β-catenin
Experimental: Western blots were performed following a procedure similar to previously published work (Osada, T.; Chen, M. Y.; Yang, X. Y.; Spasojevic, I.; Vandeusen, J. B.; Hsu, D.; Clary, B. M.; Clay, T. M.; Chen, W.; Morse, M. A.; Lyerly, H. K. Cancer Research 2011, 71, 4172). HCT-116 cells were grown to about 80% confluency in poly-D-lysine coated six-well plates 48 hours before treatment and followed by 2.0 μM compounds or DMSO incubation for 18 hours in growth medium. After treatment, the cytosolic fraction was isolated as described (Osada, T.; Chen, M. Y.; Yang, X. Y.; Spasojevic, I.; Vandeusen, J. B.; Hsu, D.; Clary, B. M.; Clay, T. M.; Chen, W.; Morse, M. A.; Lyerly, H. K. Cancer Research 2011, 71, 4172). Immunoblots using antibodies to […] (E-5, Santa Cruz Biotechnology catalog number sc-7963) was used to detect β-catenin protein levels in the cytosol, and immunoblots using antibodies to β-actin (C-4, Santa Cruz Biotechnology, catalog number SC-47778) was used for loading controls.
Inhibition of Wnt signaling was determined by analyzing the reduction of cytosolic β-catenin by Western blot (FIG. 1, 2).

[2] = system: colon cancer cell line HCT116; test: Cell proliferation assay (MTS)
Experimental: The colon cancer cell line HCT116 was used in the cell proliferation assay. The cells were plated in 100 μl of growing medium/well in 96-well plates at 5,000 cells per well and treated with compounds from 0.04 to 10 μM for 72 hours, after which point the cells were analyzed by colorimetric MTS assay (Promega, Madison, Wis., USA). Data were fit using GraphPad Prism (mean±SEM, n 3).

T1 sequence (Q9UP38 70-647): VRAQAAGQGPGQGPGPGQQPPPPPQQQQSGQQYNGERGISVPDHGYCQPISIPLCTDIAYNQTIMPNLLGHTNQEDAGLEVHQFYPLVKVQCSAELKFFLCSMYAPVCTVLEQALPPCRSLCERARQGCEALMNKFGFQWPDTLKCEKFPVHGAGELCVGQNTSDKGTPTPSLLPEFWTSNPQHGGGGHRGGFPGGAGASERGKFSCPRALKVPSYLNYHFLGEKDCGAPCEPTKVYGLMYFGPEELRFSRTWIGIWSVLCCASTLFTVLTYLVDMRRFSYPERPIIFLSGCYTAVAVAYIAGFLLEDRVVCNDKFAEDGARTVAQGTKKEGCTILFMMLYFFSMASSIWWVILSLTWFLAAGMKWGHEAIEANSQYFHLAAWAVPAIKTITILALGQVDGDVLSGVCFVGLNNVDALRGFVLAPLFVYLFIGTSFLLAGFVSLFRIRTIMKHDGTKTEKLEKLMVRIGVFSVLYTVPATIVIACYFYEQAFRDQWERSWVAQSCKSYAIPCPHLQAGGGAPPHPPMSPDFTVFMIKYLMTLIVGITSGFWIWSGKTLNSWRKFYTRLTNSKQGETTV

SMILES	IC50 ([1]; Homo sapiens, HEK293, 8 h) [nM]	Fzd1-GFP internalization @12.5 μM (Frizzled1-GFP)	further results
CS(=O)(=O)c1ccc(NC(=O)c2cc(Cl)ccc2O)c(Cl)c1 [Compound 5, 5-chloro-N-(2-chloro-4-(methylsulfonyl)phenyl)-2-hydroxybenzamide]	7660	0	–
O=C(c1ccccc1)c1ccc(NC(=O)c2cc(Cl)ccc2O)cc1 [Compound 6, N-(4-benzoylphenyl)-5-chloro-2-hydroxybenzamide]	15000	0	–
O=C(Nc1cccc(C(F)(F)F)c1)c1cc(Cl)ccc1O [Compound 9, 5-chloro-2-hydroxy-N-(3-(trifluoromethyl)phenyl)benzamide]	890 ± 320	5	–
O=C(Nc1ccc(C(F)(F)F)cc1F)c1cc(Cl)ccc1O [Compound 10, 5-chloro-N-(2-fluoro-4-(trifluoromethyl)phenyl)-2-hydroxybenzamide]	550 ± 110	5	–
O=C(Nc1ccc(Cl)c(Cl)c1)c1cc(Cl)ccc1O [Compound 17, 5-chloro-N-(3,4-dichlorophenyl)-2-hydroxybenzamide]	–	5	IC50 ([1]; Homo sapiens, HEK293): 730 ± 130 nM
O=C(Nc1ccc(F)cc1F)c1cc(Cl)ccc1O [Compound 20, 5-chloro-N-(2,4-difluorophenyl)-2-hydroxybenzamide]	4020 ± 790	2	–
O=C(Nc1ccc(F)cc1Cl)c1cc(Cl)ccc1O [Compound 22, 5-chloro-N-(2-chloro-4-fluorophenyl)-2-hydroxybenzamide]	1410 ± 210	3	–
O=C(NCc1ccc(C(F)(F)F)cc1)c1cc(Cl)ccc1O [Compound 25, 5-chloro-2-hydroxy-N-(4-(trifluoromethyl)benzyl)benzamide]	15100 ± 1400	0	–
O=C(NC(=O)c1cc(Cl)ccc1O)c1ccc(C(F)(F)F)cc1 [Compound 57, 5-Chloro-2-hydroxy-N-(4-(trifluoromethyl)benzoyl)benzamide]	> 12000	0	–
O=S(=O)(Nc1ccc(C(F)(F)F)cc1Cl)c1cc(Cl)ccc1O [Compound 58, 5-Chloro-N-(2-chloro-4-(trifluoromethyl)phenyl)-2-hydroxybenzenesulfonamide]	2570 ± 270	1	Anti-proliferation activity, MTS assay, in words ([2]; HCT116, up to 10 μM): no effect
CC(=O)Oc1ccc(Cl)cc1C(=O)Nc1ccc(C(F)(F)F)cc1Cl [Compound 59, 4-Chloro-2-((2-chloro-4-(trifluoromethyl)phenyl)carbamoyl)phenyl acetate]	–	5	IC50 ([1]; Homo sapiens, HEK293): 320 ± 30 nM
CCCCC/C=C\C/C=C\CCCCCCCC(=O)Oc1ccc(Cl)cc1C(=O)Nc1ccc([N+](=O)[O-])cc1Cl [Compound 69, 4-chloro-2-((2-chloro-4-nitrophenyl)carbamoyl)phenyl (9Z,12Z)-octadeca-9,12-dienoate]	–	–	inhibition at 2 µM ([1]; Homo sapiens, HEK293, 8 h): 85%
O=C(Nc1ccc([N+](=O)[O-])cc1Cl)c1cc(Cl)ccc1OC(=O)N1CCOCC1 [Compound 71, 4-chloro-2-((2-chloro-4-nitrophenyl)carbamoyl)phenyl morpholine-4-carboxylate]	–	–	Inhibition Wnt/β-catenin transcription TopFlash, % inhibition @ 20 μM ([1]; 20 μM): 60% inhibition
CCCCCCCCOC(=O)Oc1ccc(Cl)cc1C(=O)Nc1ccc([N+](=O)[O-])cc1Cl [Compound 72, 4-chloro-2-((2-chloro-4-nitrophenyl)carbamoyl)phenyl octyl carbonate]	500	–	–
O=c1oc2ccc(Cl)cc2c(=O)n1-c1ccc([N+](=O)[O-])cc1Cl [Compound 75, 6-chloro-3-(2-chloro-4-nitrophenyl)-2H-benzo[e][1,3]oxazine-2,4(3H)-dione]	370 ± 130	–	–
O=c1oc2ccc(Cl)cc2c(=O)n1-c1ccc(C(F)(F)F)cc1F [Compound 76, 6-chloro-3-(2-fluoro-4-(trifluoromethyl)phenyl)-2H-benzo[e][1,3]oxazine-2,4(3H)-dione]	–	–	Inhibition Wnt/β-catenin transcription TopFlash, % inhibition @ 1 μM ([1]; 1 μM): 90% @ 1 μM
CCCCCCC(=O)Oc1ccc(Cl)cc1C(=O)N(C(=O)CCCCCC)c1ccc([N+](=O)[O-])cc1Cl [Compound 77, 4-Chloro-2-((2-chloro-4-nitrophenyl)(heptanoyl)carbamoyl)phenyl heptanoate]	1600	–	–
CCCCCCCCOC(=O)O/C(=N/c1ccc([N+](=O)[O-])cc1Cl)c1cc(Cl)ccc1OC(=O)OCCCCCCCC [Compound 79, 5-chloro-N-(2-chloro-4-nitrophenyl)-2-(((octyloxy)carbonyl)oxy)benzimidic (octyl carbonic) anhydride]	800	–	–
O=C(Nc1ccc(Br)cc1)c1cc(Br)ccc1O [D, 5-bromo-N-(4-bromophenyl)-2-hydroxybenzamide, reference compound]	–	–	inhibition at 2 µM ([1]; Homo sapiens, HEK293, 8 h): 60%

The next lines start with results.

IC50 ([1]; Homo sapiens, HEK293, 8 h) [nM]	Fzd1-GFP internalization @12.5 μM (Frizzled1-GFP)	SMILES	further results
11800	0	O=C(Nc1ccccc1)c1cc(Cl)ccc1O [Compound 1, 5-chloro-2-hydroxy-N-phenylbenzamide]	–
–	5	O=C(Nc1ccc([N+](=O)[O-])cc1)c1cc(Cl)ccc1O [Compound 2, 5-chloro-2-hydroxy-N-(4-nitrophenyl)benzamide]	IC50 [1]: 990 ± 320 nM
6420 ± 510	0	CC(=O)c1ccc(NC(=O)c2cc(Cl)ccc2O)cc1 [Compound 3, N-(4-acetylphenyl)-5-chloro-2-hydroxybenzamide]	–
> 12000	0	NC(=O)c1ccc(NC(=O)c2cc(Cl)ccc2O)cc1 [Compound 4, N-(4-carbamoylphenyl)-5-chloro-2-hydroxybenzamide]	–
290 ± 60	5	O=C(Nc1ccc(C(F)(F)F)cc1)c1cc(Cl)ccc1O [Compound 8, 5-chloro-2-hydroxy-N-(4-(trifluoromethyl)phenyl)benzamide]	activity at 2 µM (β-catenin): 7%; IC50 ([2]; Homo sapiens, HCT-116, HCT116, 72 hours, 0.04 to 10 μM, read-out: Anti-proliferation IC50 (μM), MTS assay): 0.67 ± 0.09 µM
1300 ± 180	0	O=C(Nc1ccc(Cl)cc1)c1cc(Cl)ccc1O [Compound 11, 5-chloro-N-(4-chlorophenyl)-2-hydroxybenzamide]	–
1650 ± 120	5	O=C(Nc1cccc(Cl)c1)c1cc(Cl)ccc1O [Compound 12, 5-chloro-N-(3-chlorophenyl)-2-hydroxybenzamide]	–
3050 ± 870	1	O=C(Nc1ccccc1Cl)c1cc(Cl)ccc1O [Compound 13, 5-chloro-N-(2-chlorophenyl)-2-hydroxybenzamide]	–
750 ± 130	5	O=C(Nc1cc(Cl)ccc1Cl)c1cc(Cl)ccc1O [Compound 15, 5-chloro-N-(2,5-dichlorophenyl)-2-hydroxybenzamide]	–
700 ± 130	5	O=C(Nc1cc(Cl)cc(Cl)c1)c1cc(Cl)ccc1O [Compound 16, 5-chloro-N-(3,5-dichlorophenyl)-2-hydroxybenzamide]	–
3840 ± 290	0	O=C(Nc1ccc(F)cc1)c1cc(Cl)ccc1O [Compound 19, 5-chloro-N-(4-fluorophenyl)-2-hydroxybenzamide]	–
1210 ± 170	5	O=C(Nc1ccc(F)c(Cl)c1)c1cc(Cl)ccc1O [Compound 23, 5-chloro-N-(3-chloro-4-fluorophenyl)-2-hydroxybenzamide]	–
